Experimental data taken from US9416163B2, “Synthetic oligopeptides designed from mite cysteine proteases and methods for the production of polyclonal IgY antibodies for the detection of intradomiciliary mites” (priority 2009, dated 2016).

Test system: Hi Line Brown chickens
Assay: Immunogenicity of synthetic peptide in immunized chickens (IgY production)
Assay type: in vivo, chicken
Details: chickens immunized intramuscularly with peptide in Freund's adjuvant; IgY from egg yolk
Source text: An experimental avian model was used in the experiments, represented by Hi Line Brown chickens, immunized with peptide 2, using complete Freund's adjuvant during the first immunization and incomplete Freund's adjuvant for the three subsequent immunizations, as described in the immunization protocol used. As a positive control, chickens were immunized with BSA, and as a negative control they were not immunized. Antibodies were extracted from egg yolk using an organic solvent and purified by thiophilic chromatography. Indirect ELISA tests were developed to measure the antibody titer and its specificity was determined by indirect ELISA. (25-26)
Experiments used an avian experimental model, represented by Hi Line Brown chickens, immunized with peptide 2, using complete Freund's adjuvant for the first immunization and incomplete Freund's adjuvant for the three subsequent immunizations described in the immunization protocol used. As a positive control, chickens were immunized with BSA, and as a negative control they were not immunized. Antibodies were extracted from egg yolk using an organic solvent and purified by thiophilic chromatography. Indirect ELISA tests were developed to measure the antibody titer and its specificity was determined by indirect ELISA. (25-26)
(§1) Experiments used an avian experimental model, represented by Hi Line Brown chickens, immunized with peptide 4, using complete Freund's adjuvant for the first immunization and incomplete Freund's adjuvant for the three subsequent immunizations described in the immunization protocol used. […] Indirect ELISA tests were developed to measure the antibody titer and its specificity was determined by indirect ELISA. […]
as §1, with “5,” for “4,”, “ELISA (FIG. 14)” for “ELISA.”

Sequence | Immunogenicity: induction of IgY antibodies recognizing native mite proteins
IPANFDWRQKTHVNPIRNQG [Peptide P05] | induces the production of IgY-anti P05 antibody that recognizes epitopes B and/or T in native proteins of intradomiciliary Dp and Bt mites
PIRMQGGCGSCWAFSGV [Peptide P02] | induces the production of IgY anti P06 antibodies that recognize B and/or T epitopes in native proteins of intradomiciliary Df, Dp and Bt mite species
TNACSINGNAPAEIDLRQMR [Peptide P01] | induces the production of IgY anti P04 antibodies that recognize B and/or T epitopes in native proteins of intradomiciliary Df and Bt mite species
